Measurements taken from ChEMBL document CHEMBL1146458, “Five new maleic and succinic acid derivatives from the mycelium of Antrodia camphorata and their cytotoxic effects on LLC tumor cell line” (2004).
Converted amounts (≈) assume the structure as drawn.

Experiment: Cytotoxicity against mouse LLC cells after 48 hrs by SRB assay
Format: functional
Settings: Lewis lung carcinoma, read-out: ED50 (the source's name)

| SMILES | EC50 [µg/mL] |
| --- | --- |
| CC(C)=CCOc1ccc([C@H]2C(=O)N(O)C(=O)[C@@H]2CC(C)C)cc1 (relative stereo) | > 10 |
| CC(C)=CCOc1ccc(C2=C(CC(C)C)C(=O)N(O)C2=O)cc1 | 7.5 (≈ 22.8 µM) |
| CC(C)=CCOc1ccc(C2=C(CC(C)C)C(=O)NC2=O)cc1 | 3.6 (≈ 11.5 µM) |
| CC(C)=CCOc1ccc(C2=C(CC(C)C)C(=O)OC2=O)cc1 | > 20 |
| COc1cccc2c1C(=O)c1c(O)c3c(c(O)c1C2=O)C[C@@](O)(C(=O)CO)C[C@@H]3O[C@H]1C[C@H](N)[C@H](O)[C@H](C)O1 [DOXORUBICIN] | 0.14 (≈ 0.258 µM) |
